Converted amounts (≈) assume the structure as drawn.
Experiments:
[1] = molecular target: T1, Nuclear receptor ROR-gamma (Homo sapiens) (UniProt P51449); test: (§1) Transrepression of recombinant human GAL4-DBD fused RORgammat LBD expressed in HEK293 cells after 20 hrs by luciferase reporter gene assay; assay type: cell-based
T1 sequence (whole entry): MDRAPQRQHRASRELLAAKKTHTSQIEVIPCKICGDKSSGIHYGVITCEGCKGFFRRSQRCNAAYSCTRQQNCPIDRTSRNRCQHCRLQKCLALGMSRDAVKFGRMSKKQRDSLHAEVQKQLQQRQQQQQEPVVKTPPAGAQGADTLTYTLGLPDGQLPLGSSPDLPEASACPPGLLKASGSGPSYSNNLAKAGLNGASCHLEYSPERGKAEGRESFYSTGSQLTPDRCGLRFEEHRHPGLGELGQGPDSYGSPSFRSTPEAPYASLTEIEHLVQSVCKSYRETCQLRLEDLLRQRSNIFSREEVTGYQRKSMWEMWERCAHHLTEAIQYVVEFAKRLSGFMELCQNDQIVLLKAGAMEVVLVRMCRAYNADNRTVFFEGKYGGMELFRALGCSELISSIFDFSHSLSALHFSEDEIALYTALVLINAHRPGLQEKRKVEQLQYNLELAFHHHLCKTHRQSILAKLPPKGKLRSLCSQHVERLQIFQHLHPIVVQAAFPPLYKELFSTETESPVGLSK

[2] = molecular target: T2, Nuclear receptor ROR-gamma (Homo sapiens, UniProt P51449); test: as §1; assay type: cell-based
T2 sequence (P51449 whole entry): T1 sequence (whole entry)

[3] = molecular target: T3, Nuclear receptor ROR-gamma (Mus musculus) (UniProt P51450); test: (§2) Transrepression of recombinant mouse GAL4-DBD fused RORgammat LBD expressed in HEK293 cells after 20 hrs by luciferase reporter gene assay; assay type: cell-based
T3 sequence (whole entry): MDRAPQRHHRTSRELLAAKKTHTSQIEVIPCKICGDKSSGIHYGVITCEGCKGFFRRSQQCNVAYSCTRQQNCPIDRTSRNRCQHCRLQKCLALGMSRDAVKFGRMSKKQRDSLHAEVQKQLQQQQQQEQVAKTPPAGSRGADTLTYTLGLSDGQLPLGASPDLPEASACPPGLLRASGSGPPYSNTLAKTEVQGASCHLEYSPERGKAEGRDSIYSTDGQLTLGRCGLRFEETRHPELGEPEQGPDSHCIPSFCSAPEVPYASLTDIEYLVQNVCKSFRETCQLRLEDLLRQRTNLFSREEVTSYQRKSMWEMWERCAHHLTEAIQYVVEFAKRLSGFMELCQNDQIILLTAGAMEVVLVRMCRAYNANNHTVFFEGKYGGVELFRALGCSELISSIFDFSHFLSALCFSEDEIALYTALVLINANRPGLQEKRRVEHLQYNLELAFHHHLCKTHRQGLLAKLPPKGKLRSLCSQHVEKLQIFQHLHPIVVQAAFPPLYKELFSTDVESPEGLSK

[4] = molecular target: T4, Nuclear receptor ROR-gamma (Mus musculus, UniProt P51450); test: as §2; assay type: cell-based
T4 sequence (P51450 whole entry): T3 sequence (whole entry)

[5] = Stability in human liver microsomes assessed as parent compound remaining after 2 hrs by LC-MS/MS analysis; assay type: ADME, microsome; settings: read-out: Stability
[6] = Stability in rat liver microsomes assessed as parent compound remaining after 2 hrs by LC-MS/MS analysis; assay type: ADME, microsome; settings: read-out: Stability
[7] = Solubility of the compound in NaCl/HCl buffer at pH 1.2 by shake-flask method; assay type: physicochemical
[8] = Solubility of the compound in KH2PO4/Na2HPO4 buffer at pH 6.8 by shake-flask method; assay type: physicochemical
[9] = molecular target: T4, Nuclear receptor ROR-gamma; test: Transrepression of RORgammat in anti-CD3/CD28 stimulated C57BL/6 mouse CD4-positive T cells assessed as suppression of T cell differentiation to Th17 cells by measuring reduction in IL-17A level after 4 days by ELISA
[10] = molecular target: T2, Nuclear receptor ROR-gamma; test: Displacement of [3H]-Digoxin from recombinant human GST-fused RORgammat LBD after 1 to 4 hrs by scintillation counting method

Row | SMILES | Efficacy [1] [%] | IC50 [2] [nM] | Efficacy [3] [%] | IC50 [4] [nM] | remaining at 2 h [5] [%] | remaining at 2 h [6] [%] | solubility thermodynamic [7] [µM] | solubility thermodynamic [8] [µM] | IC50 [9] [nM] | IC50 [10] [nM]
1 | CCS(=O)(=O)c1ccc(CC(=O)Nc2ccc(C(C)(C)C(=O)Nc3cc(Cl)ccn3)cc2)cc1 | 95 | 8.2 | 86 | 100 | 40 | 8.1 | > 50 | 4.7 (≈ 2.35 µg/mL) | – | –
2 | CCS(=O)(=O)c1ccc(CC(=O)Nc2ccc(C(C)(C)C(=O)Nc3cccc(F)c3)cc2)cc1 | 94 | 9.8 | 84 | 260 | 2.7 | 24 | – | – | 290 | –
3 | CCS(=O)(=O)c1ccc(CC(=O)Nc2ccc(C(C)(C)C(=O)N3CCC3)cc2)cc1 | 90 | 180 | 52 | > 10000 | – | – | – | – | – | < 30
4 | CCS(=O)(=O)c1ccc(CC(=O)Nc2ccc(C(C)(C)C(=O)N3CCc4ccccc43)cc2)cc1 | 93 | 10 | 87 | 110 | – | – | – | – | – | < 30
5 | CCS(=O)(=O)c1ccc(CC(=O)Nc2ccc(C(C)(C)C(=O)Nc3cccc(C(F)(F)F)n3)cc2)cc1 | 90 | 500 | 66 | 5400 | 74 | 71 | 1.1 (≈ 0.587 µg/mL) | 0.6 (≈ 0.32 µg/mL) | – | –
6 | CCS(=O)(=O)c1ccc(CC(=O)Nc2ccc(C(C)(C)C(=O)N3Cc4ccccc4C3)cc2)cc1 | 92 | 260 | 84 | 1900 | – | – | – | – | – | < 30
7 | CCS(=O)(=O)c1ccc(CC(=O)Nc2ccc(C(C)(C)C(=O)Nc3ccccn3)cc2)cc1 | 93 | 40 | 73 | 1300 | 60 | 36 | > 50 | > 50 | – | –
8 | CCS(=O)(=O)c1ccc(CC(=O)Nc2ccc(C(C)(C)C(=O)N(C)C)cc2)cc1 | 89 | 370 | 51 | > 10000 | – | – | – | – | – | 30
9 | CCS(=O)(=O)c1ccc(CC(=O)Nc2ccc(C(C)(C)C(=O)Nc3ncccc3F)cc2)cc1 | 92 | 310 | 37 | > 10000 | 93 | 80 | > 50 | > 50 | – | –
10 | CCS(=O)(=O)c1ccc(CC(=O)Nc2ccc(C(C)(C)C(=O)N(C)c3ccccc3)cc2)cc1 | 93 | 14 | 76 | 330 | – | – | – | – | – | < 30
11 | CCS(=O)(=O)c1ccc(CC(=O)Nc2ccc(C(C)(C)C(=O)N3CCCCC3)cc2)cc1 | 91 | 430 | 50 | > 10000 | – | – | – | – | – | 36
12 | CCS(=O)(=O)c1ccc(CC(=O)Nc2ccc(C(C)(C)C(=O)Nc3cc(C(F)(F)F)ccn3)cc2)cc1 | 94 | 25 | 94 | 78 | 36 | 23 | 26 (≈ 13.9 µg/mL) | 0.5 (≈ 0.267 µg/mL) | – | –
13 | CCS(=O)(=O)c1ccc(CC(=O)Nc2ccc(C(C)(C)C(=O)Nc3cc(C#N)ccn3)cc2)cc1 | 97 | 40 | 91 | 290 | 92 | 72 | 47 (≈ 23.1 µg/mL) | 25 (≈ 12.3 µg/mL) | – | –
14 | CCS(=O)(=O)c1ccc(CC(=O)Nc2ccc(C(C)(C)C(=O)Nc3ccncc3)cc2)cc1 | 87 | 1800 | 47 | > 10000 | 4.3 | 25 | > 50 | > 50 | – | –
15 | CCS(=O)(=O)c1ccc(CC(=O)Nc2ccc(C(C)(C)C(=O)Nc3cc(F)ccn3)cc2)cc1 | 94 | 31 | 86 | 320 | 69 | 47 | > 50 | > 50 | – | –
16 | CCS(=O)(=O)c1ccc(CC(=O)Nc2ccc(C(C)(C)C(=O)Nc3ccccc3)cc2)cc1 | 93 | 14 | 69 | 470 | 8.5 | 30 | 46.9 (≈ 21.8 µg/mL) | 26.6 (≈ 12.4 µg/mL) | 480 | < 30
17 | CCS(=O)(=O)c1ccc(CC(=O)Nc2ccc(C(C)(C)C(=O)N3CC4(CCC4)C3)cc2)cc1 | 89 | 470 | 55 | 10000 | – | – | – | – | – | 33
18 | CCS(=O)(=O)c1ccc(CC(=O)Nc2ccc(C(C)(C)C(=O)Nc3cccnc3)cc2)cc1 | 93 | 150 | 63 | 4500 | – | – | – | – | – | –
19 | CCS(=O)(=O)c1ccc(CC(=O)Nc2ccc(C(C)(C)C(=O)Nc3ccccc3C)cc2)cc1 | 93 | 140 | 57 | 6800 | 24 | 6 | – | – | – | –
20 | CCS(=O)(=O)c1ccc(CC(=O)Nc2ccc(C(C)(C)C(=O)Nc3ccccc3F)cc2)cc1 | 93 | 4.4 | 76 | 100 | 67 | 19 | – | – | 100 | –
21 | CCS(=O)(=O)c1ccc(CC(=O)Nc2ccc(C(C)(C)C(=O)Nc3ccc(F)cc3F)cc2)cc1 | 91 | 95 | 73 | 1800 | 97 | 73 | – | – | 1300 | –
22 | CCOC(=O)C(C)(C)c1ccc(NC(=O)Cc2ccc(S(=O)(=O)CC)cc2)cc1 | 93 | 400 | 77 | 3100 | – | – | – | – | – | 64
